Test results from patent US20100189766A1, “SUBSTANCE DELIVERING PUNCTUM IMPLANTS AND METHODS” (QLT PLUG DELIVERY, INC., priority 2008, published 2010).

Assay: Diffusion or passage of latanoprost from the substance insert through the wall of the punctum plug
Assay type: physicochemical
Text: In applications where it is desired to deliver the therapeutic or diagnostic substance to or through the cornea or the eye it is desirable to cause the substance to become dissolved in the tear film TF which covers the cornea of the eye, while deterring or minimizing untoward loss of substance through other routes, such as through direct absorption into tissues surrounding the punctum and/or canaliculus LC in which the device is implanted (referred to generally herein as “pericanalicular tissue absorption”) or by drainage through the naso-lacrimal system into the nose. One way to limit or deter such loss of substance is to render all or part of the punctum plug 12, 12a impervious to the substance so that the substance cannot diffuse or pass through the wall of the punctum plug 12, 12a. This may be particularly important in embodiments where the punctum plug 12, 12a is formed of silicone or other material through which the substance can pass. […] The substance insert receiving portion 20b may have the same configuration as either of those substance insert receiving portions 20, 20a described above. However, in this embodiment, a coating 60 has been applied to the outer surface of the side wall of the substance insert receiving portion 20b. Such coating may also be applied to other portions of the punctum plug 12b or to the entire punctum plug 12b. […]

CC(C)OC(=O)CCC/C=C\C[C@@H]1[C@@H](CC[C@@H](O)CCc2ccccc2)[C@H](O)C[C@@H]1O [latanoprost]
diffusion or passage through the wall of the punctum plug (punctum plug formed of silicone, no coating, substance insert contains latanoprost): some of the latanoprost will diffuse or pass through the wall of the punctum plug | loss by diffusion or passage through the punctum plug (substance-impervious coating 60 applied to outer surface of the substance insert receiving portion and/or other portions of the punctum plug): substantially prevented
